Experiment: Kinetic study: plasma kinetics of TMC278 after single IM or SC injection of a nanosuspension;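 further: healthy male beagle dogs injected in both biceps femoris muscles (IM) or both thoracal sides (SC), total volume 0.2 mL/kg, drug measured in plasma from blood samples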
Type: in vivo, male beagle dogs
Details: male, beagle, dog, plasma, 5 mg/kg
Protocol: Six healthy male beagle dogs with body weights ranging from 8 to 16 kg at the start of the study, were used. Each dog was identified by an ear tattoo number. Two dogs were dosed intramuscularly (IM) in the left and right m. biceps femoris (treatment group A). […] Two dogs were dosed subcutaneously (SC) in the left and right thoracal region. The injection volume was 2×0.1 ml/kg in all treatment groups. A 20 G needle was used.
Blood samples of 3 ml were taken from the left jugular vein from all dogs on day 0 at 0 h (predose), 20 min, 1 h, 3 h, 8 h and 24 h post-dose and further on days 2, 3, 6, 8, 10, 13, 16, 20, 23, 27, 29, 36, 43, 50, 57, 64, 71, 78, 85 and 92 at approximately 8 AM. Blood samples were placed on EDTA, EDTA Vacuette Greiner, Cat. No. 454086, Greiner Labortechnik N.V.). Within 2 h of blood sampling, samples were centrifuged at room temperature at about 1900×g for 10 minutes to allow plasma separation. Plasma was immediately transferred into a second tube and stored in the freezer within 2 hours after the start of centrifugation.

Compound `Cc1cc(C=CC#N)cc(C)c1Nc1ccnc(Nc2ccc(C#N)cc2)n1` [TMC278, 4-[[4-[[4-(2-cyanoethenyl)-2,6-dimethylphenyl]amino]-2-pyrimidinyl]amino]benzonitrile] has a concentration at 2040 h (intramuscular, plasma concentration of TMC278, single IM 5 mg/kg TMC278 nanosuspension, mean of 2 dogs, 2040 h (d85)) of 1.8 ng/mL, a concentration at 2208 h (intramuscular, plasma concentration of TMC278, single IM 5 mg/kg TMC278 nanosuspension, mean of 2 dogs, 2208 h (d92)) of 1.41 ng/mL and a concentration at 0 h (sc, plasma concentration of TMC278, single SC 5 mg/kg TMC278 nanosuspension, dog 19129, 0 h (d0, predose)) of less than 1 ng/mL. It also gave a concentration at 1 h (sc, plasma concentration of TMC278, single SC 5 mg/kg TMC278 nanosuspension, dog 19129, 1 h) of 1.62 ng/mL, a concentration at 3 h (sc, plasma concentration of TMC278, single SC 5 mg/kg TMC278 nanosuspension, dog 19129, 3 h) of 7.96 ng/mL and a concentration at 8 h (sc, plasma concentration of TMC278, single SC 5 mg/kg TMC278 nanosuspension, dog 19129, 8 h) of 27.6 ng/mL. It also gave a concentration at 24 h (sc, plasma concentration of TMC278, single SC 5 mg/kg TMC278 nanosuspension, dog 19129, 24 h (d1)) of 15.7 ng/mL, a concentration at 48 h (sc, plasma concentration of TMC278, single SC 5 mg/kg TMC278 nanosuspension, dog 19129, 48 h (d2)) of 34.8 ng/mL and a concentration at 72 h (sc, plasma concentration of TMC278, single SC 5 mg/kg TMC278 nanosuspension, dog 19129, 72 h (d3)) of 26.1 ng/mL. It also gave a concentration at 144 h (sc, plasma concentration of TMC278, single SC 5 mg/kg TMC278 nanosuspension, dog 19129, 144 h (d6)) of 18.9 ng/mL, a concentration at 192 h (sc, plasma concentration of TMC278, single SC 5 mg/kg TMC278 nanosuspension, dog 19129, 192 h (d8)) of 17.7 ng/mL and a concentration at 240 h (sc, plasma concentration of TMC278, single SC 5 mg/kg TMC278 nanosuspension, dog 19129, 240 h (d10)) of 24.3 ng/mL. For the same compound, the concentration at 312 h (sc, plasma concentration of TMC278, single SC 5 mg/kg TMC278 nanosuspension, dog 19129, 312 h (d13)) was 21.7 ng/mL, the concentration at 384 h (sc, plasma concentration of TMC278, single SC 5 mg/kg TMC278 nanosuspension, dog 19129, 384 h (d16)) was 21.7 ng/mL and the concentration at 480 h (sc, plasma concentration of TMC278, single SC 5 mg/kg TMC278 nanosuspension, dog 19129, 480 h (d20)) was 29.8 ng/mL. For the same compound, the concentration at 648 h (sc, plasma concentration of TMC278, single SC 5 mg/kg TMC278 nanosuspension, dog 19129, 648 h (d27)) was 19 ng/mL, the concentration at 696 h (sc, plasma concentration of TMC278, single SC 5 mg/kg TMC278 nanosuspension, dog 19129, 696 h (d29)) was 21 ng/mL and the concentration at 864 h (sc, plasma concentration of TMC278, single SC 5 mg/kg TMC278 nanosuspension, dog 19129, 864 h (d36)) was 12.7 ng/mL. For the same compound, the concentration at 1032 h (sc, plasma concentration of TMC278, single SC 5 mg/kg TMC278 nanosuspension, dog 19129, 1032 h (d43)) was 5.22 ng/mL, the concentration at 1200 h (sc, plasma concentration of TMC278, single SC 5 mg/kg TMC278 nanosuspension, dog 19129, 1200 h (d50)) was 6.37 ng/mL and the concentration at 1368 h (sc, plasma concentration of TMC278, single SC 5 mg/kg TMC278 nanosuspension, dog 19129, 1368 h (d57)) was 4.78 ng/mL. For the same compound, the concentration at 1536 h (sc, plasma concentration of TMC278, single SC 5 mg/kg TMC278 nanosuspension, dog 19129, 1536 h (d64)) was 6.45 ng/mL, the concentration at 1704 h (sc, plasma concentration of TMC278, single SC 5 mg/kg TMC278 nanosuspension, dog 19129, 1704 h (d71)) was 3.96 ng/mL and the concentration at 1872 h (sc, plasma concentration of TMC278, single SC 5 mg/kg TMC278 nanosuspension, dog 19129, 1872 h (d78)) was 3.66 ng/mL. The concentration at 2040 h (sc, plasma concentration of TMC278, single SC 5 mg/kg TMC278 nanosuspension, dog 19129, 2040 h (d85)) was 8.6 ng/mL, the concentration at 2208 h (sc, plasma concentration of TMC278, single SC 5 mg/kg TMC278 nanosuspension, dog 19129, 2208 h (d92)) was 3.05 ng/mL and the concentration at 0 h (sc, plasma concentration of TMC278, single SC 5 mg/kg TMC278 nanosuspension, dog 19349, 0 h (d0, predose)) was less than 1 ng/mL. It also gave a concentration at 1 h (sc, plasma concentration of TMC278, single SC 5 mg/kg TMC278 nanosuspension, dog 19349, 1 h) of 1.37 ng/mL, a concentration at 3 h (sc, plasma concentration of TMC278, single SC 5 mg/kg TMC278 nanosuspension, dog 19349, 3 h) of 8.42 ng/mL and a concentration at 8 h (sc, plasma concentration of TMC278, single SC 5 mg/kg TMC278 nanosuspension, dog 19349, 8 h) of 13.8 ng/mL. It also gave a concentration at 24 h (sc, plasma concentration of TMC278, single SC 5 mg/kg TMC278 nanosuspension, dog 19349, 24 h (d1)) of 28.5 ng/mL, a concentration at 48 h (sc, plasma concentration of TMC278, single SC 5 mg/kg TMC278 nanosuspension, dog 19349, 48 h (d2)) of 29.1 ng/mL and a concentration at 72 h (sc, plasma concentration of TMC278, single SC 5 mg/kg TMC278 nanosuspension, dog 19349, 72 h (d3)) of 30.6 ng/mL. For the same compound, the concentration at 144 h (sc, plasma concentration of TMC278, single SC 5 mg/kg TMC278 nanosuspension, dog 19349, 144 h (d6)) was 32.7 ng/mL, the concentration at 192 h (sc, plasma concentration of TMC278, single SC 5 mg/kg TMC278 nanosuspension, dog 19349, 192 h (d8)) was 23 ng/mL and the concentration at 240 h (sc, plasma concentration of TMC278, single SC 5 mg/kg TMC278 nanosuspension, dog 19349, 240 h (d10)) was 42 ng/mL. The concentration at 312 h (sc, plasma concentration of TMC278, single SC 5 mg/kg TMC278 nanosuspension, dog 19349, 312 h (d13)) was 38.8 ng/mL, the concentration at 384 h (sc, plasma concentration of TMC278, single SC 5 mg/kg TMC278 nanosuspension, dog 19349, 384 h (d16)) was 16.6 ng/mL and the concentration at 480 h (sc, plasma concentration of TMC278, single SC 5 mg/kg TMC278 nanosuspension, dog 19349, 480 h (d20)) was 21.2 ng/mL. The concentration at 648 h (sc, plasma concentration of TMC278, single SC 5 mg/kg TMC278 nanosuspension, dog 19349, 648 h (d27)) was 11 ng/mL, the concentration at 696 h (sc, plasma concentration of TMC278, single SC 5 mg/kg TMC278 nanosuspension, dog 19349, 696 h (d29)) was 10.5 ng/mL and the concentration at 864 h (sc, plasma concentration of TMC278, single SC 5 mg/kg TMC278 nanosuspension, dog 19349, 864 h (d36)) was 5.49 ng/mL. The concentration at 1032 h (sc, plasma concentration of TMC278, single SC 5 mg/kg TMC278 nanosuspension, dog 19349, 1032 h (d43)) was 6.03 ng/mL and the concentration at 1200 h (sc, plasma concentration of TMC278, single SC 5 mg/kg TMC278 nanosuspension, dog 19349, 1200 h (d50)) was 3.4 ng/mL.

Reference: US11389447B2 (Janssen Sciences Ireland Unlimited Company, priority 2006, dated 2022)
